# Laboratory results published in US7078059B2, “Treatment of bone diseases” (Shire Holdings AG, priority 2000, dated 2006).
# Several values for one entry are separate records, joined by “and”; a condition that tells them apart may be missing. Equal entries are not always repeated. Entries after “also recorded” stand apart in the source; their conditions may differ.
# Assays:
# [1] = test system: mouse bone marrow derived osteoprogenitor cells; assay: In vitro osteoblast differentiation assay (cellular alkaline phosphatase); assay type: cell-based; conditions: for Osteoblast differentiation: significance of activation/inhibition vs baseline
# Outline: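 Mouse bone marrow osteoprogenitors cultured, then test substances added at start of estrogen-free secondary culture and at each medium change. ALP measured colorimetrically (p-nitrophenylphosphate, pH 9.7, OD 405 nm) and normalised to protein. Reported as specific ALP relative to baseline-group mean.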
# [2] = test system: osteoclasts cultured on bone slices; assay: In vitro bone resorption assay (osteoclasts on bovine bone slices, CrossLaps); assay type: cell-based, rat; conditions: for Effect on bone resorption / bone resorbing activity of mature osteoclasts, in words: lanthanum (III) ion = any of the concentrations tested (100-15000 ng/ml), bafilomycin Al 10 nM; for Bone resorption: significance of activation/inhibition vs baseline
# Outline: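 Osteoclasts from long bones of 1-day-old rat pups were cultured on bovine cortical bone slices, with compound added at culture start, for 72 h at 37 °C. Resorption was measured as collagen cross-links (CrossLaps) released into the medium per TRAP-positive multinuclear cell, expressed relative to the baseline group mean.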
# mature osteoblasts = assay: In vitro bone formation assay (calcium deposition into bone nodules); assay type: cell-based, mouse; conditions: for Effect on bone formation activity of mature osteoblasts, in words: lanthanum (III) / lanthanum (III) ion = all concentrations tested, 100 to 15,000 ng/ml, 17-estradiol 10^−10M; for Bone formation: significance of activation/inhibition vs baseline
# Outline: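 Calcium deposited into bone nodules during culture was released by HCl extraction and complexed with o-cresol-phthalein-complexon, read at 570 nm. Absolute calcium (mmol/L) from a calibrated standard. Lanthanum carbonate tested.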
# [3] = LA number = ng/ml lanthanum, lanthanum (III) ion = 100-15000 ng/ml, 17-estradiol 10^−10 M
# [4] = first osteoblast differentiation assay, relative to mean of baseline group, 8 days, LA number = ng/ml lanthanum, Control = Baseline+10^−10 M 17-estradiol
# [5] = preliminary osteoblast differentiation assay, relative to mean of baseline group, 8 days, LA number = ng/ml lanthanum, Control = Baseline+10^−10 M 17-estradiol
# [6] = second osteoblast differentiation assay, relative to mean of baseline group, 8 days, LA number = ng/ml lanthanum, Control = Baseline+10^−10 M 17-estradiol
# [7] = second bone resorption assay, relative to mean of baseline group, 72 hours, LA number = ng/ml lanthanum, Control = Baseline+10 nM bafilomycin Al
# [8] = first bone formation assay, calcium released from bone nodules after HCl extraction, LA number = ng/ml lanthanum, Control = Baseline+10^−10M 17β-estradiol
# [9] = preliminary bone formation assay, calcium released from bone nodules after HCl extraction, LA number = ng/ml lanthanum, Control = Baseline+10^−10M 17β-estradiol
# [10] = second bone formation assay, calcium released from bone nodules after HCl extraction, LA number = ng/ml lanthanum, Control = Baseline+10^−10M 17β-estradiol
# [11] = LA number = ng/ml lanthanum, listed as lanthanum (III) ion
smiles,measurement,setting,value
"O.O.O.O.O=C([O-])[O-].O=C([O-])[O-].O=C([O-])[O-].[La+3].[La+3] [LA 15000, lanthanum carbonate tetrahydrate]","Effect on osteoblast differentiation, in words",[1]; [3],inhibited
same,"Relative specific activities of intracellular alkaline phosphatase, Mean ± SD",[1]; [4],0.40 ± 0.07(***)
same,"Relative specific activities of intracellular alkaline phosphatase, replicates 1-8",[1]; [4],0.39 and 0.35 and 0.43
same,"Relative specific activities of intracellular alkaline phosphatase, Mean ± SD",[1]; [5],0.50 ± 0.03(***)
same,"Relative specific activities of intracellular alkaline phosphatase, replicates 1-4",[1]; [5],0.51 and 0.49 and 0.47 and 0.54
same,"Relative specific activities or intracellular alkaline phosphatase, Mean ± SD",[1]; [6],0.28 ± 0.07(***)
same,"Relative specific activities or intracellular alkaline phosphatase, replicates 1-6",[1]; [6],0.27 and 0.13 and 0.33 and 0.32 and 0.29 and 0.31
same,"Combined results on osteoblast differentiation (relative specific ALP activity), Mean ± SD","[1]; tables 8-10 combined, number 18, LA number = ng/ml lanthanum, Control = Baseline+10^−10 M 17-estradiol",0.38 ± 0.11 (***)
same,"Effect on bone resorption / bone resorbing activity of mature osteoclasts, in words",[2]; LA number = ng/ml lanthanum,slight decrease
same,"Relative medium CrossLaps amounts per osteoclast, replicates 1-6","[2]; first bone resorption assay, relative to mean of baseline group, 72 hours, LA number = ng/ml lanthanum in culture medium, Control = Baseline+10 nM bafilomycin Al",0.57 (2×) and 0.58 and 0.96 and 2.53 and 1.11
same,"Relative medium CrossLaps amounts per osteoclast, Mean ± SD","[2]; first bone resorption assay, relative to mean of baseline group, 72 hours, LA number = ng/ml lanthanum, Control = Baseline+10 nM bafilomycin Al",1.05 ± 0.76
same,"Relative medium CrossLaps amounts per osteoclasts, Mean ± SD",[2]; [7],0.63 ± 0.29
same,"Relative medium CrossLaps amounts per osteoclasts, replicates 1-6",[2]; [7],0.29 and 1.08 and 0.62 and 0.87 and 0.47 and 0.45
same,"Combined results on bone resorption (relative medium CrossLaps per osteoclast), Mean ± SD","[2]; tables 1 and 2 combined, number 12, LA number = ng/ml lanthanum, Control = Baseline+10 nM bafilomycin Al",0.84 ± 0.59
same,"Effect on bone formation activity of mature osteoblasts, in words",mature osteoblasts; LA number = ng/ml lanthanum,best responses
same,"Calcium deposition, Mean ± SD",mature osteoblasts; [8],1.29 ± 0.21 mmol/L
same,"Calcium deposition, replicates 1-6",mature osteoblasts; [8],1.46 mmol/L and 1.42 mmol/L and 1.56 mmol/L and 1.11 mmol/L (2×) and 1.08 mmol/L
same,"Calcium deposition, Mean ± SD",mature osteoblasts; [9],0.89 ± 0.66 mmol/L
same,"Calcium deposition, replicates 1-4",mature osteoblasts; [9],1.48 mmol/L and 0.16 mmol/L and 0.50 mmol/L and 1.41 mmol/L
same,"Calcium deposition, Mean ± SD",mature osteoblasts; [10],1.40 ± 0.21(* mmol/L
same,"Calcium deposition, replicates 1-8",mature osteoblasts; [10],1.62 mmol/L and 1.18 mmol/L and 1.21 mmol/L
same,"Combined results on bone formation activity of mature osteoblasts (calcium released), Mean ± SD","mature osteoblasts; tables 13 and 14 combined, number 14, LA number = ng/ml lanthanum, Control = Baseline+10^−10M 17β-estradiol",1.35 ± 0.21 mmol/L
"O.O.O.O.O=C([O-])[O-].O=C([O-])[O-].O=C([O-])[O-].[La+3].[La+3] [LA, lanthanum carbonate tetrahydrate]","Effect on osteoblast differentiation, in words",[1]; 100 ng/ml lanthanum,stimulate osteoblast differentiation
same,Osteoblast differentiation,[1]; Dose 100 ng/ml,+ (One character (+ or −) means a p-value between 0.05 and 0.01)
same,Osteoblast differentiation,[1]; Dose 500 ng/ml,0
same,Osteoblast differentiation,[1]; Dose 1000 ng/ml,0
same,Osteoblast differentiation,[1]; Dose 5000 ng/ml,− − −
same,Osteoblast differentiation,[1]; Dose 15000 ng/ml,− − −
same,"Effect on osteoblast differentiation, in words",[1]; [3],clear dose-dependent response
same,"Effect on amount of CrossLaps released into the culture medium or on the osteoclast number, in words",[2]; 100-15000 ng/ml lanthanum,no significant effect
same,Bone resorption,[2]; Dose 100 ng/ml,0
same,Bone resorption,[2]; Dose 500 ng/ml,0
same,Bone resorption,[2]; Dose 1000 ng/ml,0
same,Bone resorption,[2]; Dose 5000 ng/ml,0
same,Bone resorption,[2]; Dose 15000 ng/ml,0
same,"Effect on bone resorption / bone resorbing activity of mature osteoclasts, in words","[2]; LA number = ng/ml lanthanum, listed as lanthanum",Some inhibition of bone resorption
same,"Effect on bone resorption / bone resorbing activity of mature osteoclasts, in words",[2]; [11],no statistically significant effects
same,Bone formation,mature osteoblasts; Dose 100 ng/ml,++ (two characters (++ or −−) a p-value between 0.01 and 0.001)
same,Bone formation,mature osteoblasts; Dose 500 ng/ml,+++ (three characters (+++ or −−−) a p-value <0.001)
same,Bone formation,mature osteoblasts; Dose 1000 ng/ml,+++ (three characters (+++ or −−−) a p-value <0.001)
same,Bone formation,mature osteoblasts; Dose 5000 ng/ml,+++ (three characters (+++ or −−−) a p-value <0.001)
same,Bone formation,mature osteoblasts; Dose 15000 ng/ml,+++ (three characters (+++ or −−−) a p-value <0.001)
same,"Effect on bone formation activity of mature osteoblasts, in words","mature osteoblasts; LA number = ng/ml lanthanum, listed as lanthanum (III)",Enhanced bone formation
same,"Effect on bone formation activity of mature osteoblasts, in words",mature osteoblasts; [11],highly significant activation; also recorded: powerful stimulator of the bone formation activity of mature osteoblasts
